Assay results reported in ChEMBL document CHEMBL1141728, “Transtorine, a new quinoline alkaloid from Ephedra transitoria” (1998).
≈ marks a conversion by molar mass, not a printed value. Calls of active or inactive are those of the source. The rule behind the calls is not given here.

Experiments:
[1] = system: Pseudomonas aeruginosa; experiment: Antibacterial activity against Pseudomonas aeruginosa by disk diffusion method; type: functional
[2] = system: Proteus mirabilis; experiment: Antibacterial activity against Proteus mirabilis by disk diffusion method
[3] = system: Shigella flexneri; experiment: Antibacterial activity against Shigella flexneri by disk diffusion method; type: functional
[4] = system: Bacillus subtilis; experiment: Antibacterial activity against Bacillus subtilis by disk diffusion method
[5] = system: Enterobacter cloacae; experiment: Antibacterial activity against Enterobacter cloacae by disk diffusion method; type: functional
[6] = system: Staphylococcus aureus; experiment: Antibacterial activity against Staphylococcus aureus by disk diffusion method; type: functional

Structure (SMILES)	MIC [1] [µg/mL]	MIC [2] [µg/mL]	MIC [3] [µg/mL]	MIC [4] [µg/mL]	MIC [5] [µg/mL]	Activity [3]	MIC [6] [µg/mL]
O=C(O)c1cn(C2CC2)c2cc(N3CCNCC3)c(F)cc2c1=O [CIPROFLOXACIN]	20 (≈ 60.4 µM)	20 (≈ 60.4 µM)	20 (≈ 60.4 µM)	20 (≈ 60.4 µM)	–	–	–
O=C(O)c1cc(=O)c2ccccc2[nH]1 [TRANSTORINE]	500 (≈ 2640 µM)	–	–	–	450 (≈ 2380 µM)	inactive	380 (≈ 2010 µM)
